# Reference: patent US11306079B2, “3-(5-amino-pyrazin-2-yl)-benzenesulfonamide derivatives and related compounds as PI3K-gamma kinase inhibitors” (Incyte Corporation, priority 2017, dated 2022)
# Counter-ions that a name gives are not always drawn.
# What was measured:
# [1] = system: Phosphorylated Ribosomal Protein S6 (RPS6) in THP-1 cells; experiment: THP-1 RPS6 ELISA Assay; type: cell-based; details: Homo sapiens; serum starved THP-1 cells, 2 hours with compound, 10 nM MCP-1 for 15 minutes, Phospho-RPS6 ELISA; read-out: PI3Kγ_THP1_RPS6_ELISA IC50
# Summary of the method: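 Phospho-RPS6 in lysates measured by ELISA at 450 nm, corrected at 540 nm, after MCP-1 challenge (10 nM, 15 min) of THP-1 cells that were starved overnight and exposed to test compound for 2 h at 37° C, 2×10^5 cells/well. Curve fit of percent inhibition gives IC50.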
# [2] = biological target: PI3Kγ (p110γ) Recombinant Human Protein (Homo sapiens (Human), UniProt P48736); experiment: PI3K-γ Scintillation Proximity Assay; type: biochemical; details: 20 μM PIP2, 2 μM ATP, 13 nM PI3Kγ, 120 min, room temperature
# Summary of the method: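 Recombinant human p110γ (13 nM) phosphorylated 20 μM PIP2 with 2 μM ATP plus [γ-33P]ATP in 20 mM MOPS pH 6.7, 10 mM MgCl2, 5 mM DTT, 0.03% CHAPS, 2% DMSO, 120 min at room temperature. Radiolabelled product was captured on WGA SPA beads and counted. IC50 came from curves of percent solvent-control activity.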
# [3] = biological target: PI3Kδ (p110δ/p85α) Recombinant Human Protein (Homo sapiens (Human), UniProt O00329); experiment: PI3Kδ Scintillation Proximity Assay; type: biochemical; details: 20 μM PIP2, 2 μM ATP, 3.4 nM PI3Kδ, 120 min, room temperature
# Summary of the method: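 Assay conditions: 2 μM ATP (radiolabelled), 20 μM PIP2, 3.4 nM PI3Kδ, 20 mM MOPS pH 6.7 with 10 mM MgCl2, 5 mM DTT, 0.03% CHAPS, 2 h at room temperature. Signal from bead-captured 33P product; IC50 versus solvent control.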
# PI3Kδ (p110δ/p85α) Recombinant Human Protein, sequence (O00329 whole entry): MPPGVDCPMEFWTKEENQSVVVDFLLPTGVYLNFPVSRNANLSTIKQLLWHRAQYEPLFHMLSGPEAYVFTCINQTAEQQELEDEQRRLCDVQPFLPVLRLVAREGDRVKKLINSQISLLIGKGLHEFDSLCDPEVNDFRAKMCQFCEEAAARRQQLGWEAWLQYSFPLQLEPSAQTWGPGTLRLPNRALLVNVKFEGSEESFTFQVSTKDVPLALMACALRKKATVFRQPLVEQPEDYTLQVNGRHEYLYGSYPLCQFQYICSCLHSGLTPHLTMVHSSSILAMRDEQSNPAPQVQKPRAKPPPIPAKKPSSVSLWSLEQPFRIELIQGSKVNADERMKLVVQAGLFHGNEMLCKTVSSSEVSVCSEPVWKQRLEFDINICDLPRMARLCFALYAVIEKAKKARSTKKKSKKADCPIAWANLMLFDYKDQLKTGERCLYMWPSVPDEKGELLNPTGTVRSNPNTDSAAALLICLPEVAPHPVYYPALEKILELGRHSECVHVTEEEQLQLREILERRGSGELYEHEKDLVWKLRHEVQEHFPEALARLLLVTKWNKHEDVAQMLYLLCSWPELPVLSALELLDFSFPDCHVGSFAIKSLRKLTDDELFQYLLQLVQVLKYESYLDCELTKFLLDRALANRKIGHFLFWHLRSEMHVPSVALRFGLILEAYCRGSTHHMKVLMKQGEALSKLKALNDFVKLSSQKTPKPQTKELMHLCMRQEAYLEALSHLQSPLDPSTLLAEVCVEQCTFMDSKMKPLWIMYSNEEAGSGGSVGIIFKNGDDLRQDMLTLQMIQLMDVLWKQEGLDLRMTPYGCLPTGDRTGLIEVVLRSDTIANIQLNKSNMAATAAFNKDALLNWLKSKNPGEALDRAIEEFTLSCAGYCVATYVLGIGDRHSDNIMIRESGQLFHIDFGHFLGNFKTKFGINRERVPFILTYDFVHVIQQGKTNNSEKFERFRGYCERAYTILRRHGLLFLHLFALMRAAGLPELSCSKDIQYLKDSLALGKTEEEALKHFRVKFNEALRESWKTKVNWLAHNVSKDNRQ
# PI3Kδ (p110δ/p85α) Recombinant Human Protein, sequence (P27986 whole entry partner): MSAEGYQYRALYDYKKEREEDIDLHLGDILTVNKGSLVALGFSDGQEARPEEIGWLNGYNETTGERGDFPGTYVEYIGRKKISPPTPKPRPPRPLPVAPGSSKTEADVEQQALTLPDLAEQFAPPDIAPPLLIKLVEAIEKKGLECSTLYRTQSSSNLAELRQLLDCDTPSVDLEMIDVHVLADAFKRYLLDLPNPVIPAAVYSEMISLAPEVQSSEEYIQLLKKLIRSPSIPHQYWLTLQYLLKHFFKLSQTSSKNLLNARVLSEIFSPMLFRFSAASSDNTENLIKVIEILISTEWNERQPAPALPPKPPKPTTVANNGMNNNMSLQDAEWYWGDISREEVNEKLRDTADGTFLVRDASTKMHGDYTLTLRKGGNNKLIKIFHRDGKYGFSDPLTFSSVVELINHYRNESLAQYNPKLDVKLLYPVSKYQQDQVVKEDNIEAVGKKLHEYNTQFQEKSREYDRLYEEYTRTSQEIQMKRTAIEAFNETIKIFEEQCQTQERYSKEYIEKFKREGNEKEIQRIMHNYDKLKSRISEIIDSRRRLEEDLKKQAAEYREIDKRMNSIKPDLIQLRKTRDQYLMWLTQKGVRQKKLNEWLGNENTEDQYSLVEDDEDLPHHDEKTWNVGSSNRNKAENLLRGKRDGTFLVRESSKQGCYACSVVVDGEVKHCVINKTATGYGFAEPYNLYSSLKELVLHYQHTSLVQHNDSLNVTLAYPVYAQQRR
# PI3Kγ (p110γ) Recombinant Human Protein, sequence (P48736 whole entry): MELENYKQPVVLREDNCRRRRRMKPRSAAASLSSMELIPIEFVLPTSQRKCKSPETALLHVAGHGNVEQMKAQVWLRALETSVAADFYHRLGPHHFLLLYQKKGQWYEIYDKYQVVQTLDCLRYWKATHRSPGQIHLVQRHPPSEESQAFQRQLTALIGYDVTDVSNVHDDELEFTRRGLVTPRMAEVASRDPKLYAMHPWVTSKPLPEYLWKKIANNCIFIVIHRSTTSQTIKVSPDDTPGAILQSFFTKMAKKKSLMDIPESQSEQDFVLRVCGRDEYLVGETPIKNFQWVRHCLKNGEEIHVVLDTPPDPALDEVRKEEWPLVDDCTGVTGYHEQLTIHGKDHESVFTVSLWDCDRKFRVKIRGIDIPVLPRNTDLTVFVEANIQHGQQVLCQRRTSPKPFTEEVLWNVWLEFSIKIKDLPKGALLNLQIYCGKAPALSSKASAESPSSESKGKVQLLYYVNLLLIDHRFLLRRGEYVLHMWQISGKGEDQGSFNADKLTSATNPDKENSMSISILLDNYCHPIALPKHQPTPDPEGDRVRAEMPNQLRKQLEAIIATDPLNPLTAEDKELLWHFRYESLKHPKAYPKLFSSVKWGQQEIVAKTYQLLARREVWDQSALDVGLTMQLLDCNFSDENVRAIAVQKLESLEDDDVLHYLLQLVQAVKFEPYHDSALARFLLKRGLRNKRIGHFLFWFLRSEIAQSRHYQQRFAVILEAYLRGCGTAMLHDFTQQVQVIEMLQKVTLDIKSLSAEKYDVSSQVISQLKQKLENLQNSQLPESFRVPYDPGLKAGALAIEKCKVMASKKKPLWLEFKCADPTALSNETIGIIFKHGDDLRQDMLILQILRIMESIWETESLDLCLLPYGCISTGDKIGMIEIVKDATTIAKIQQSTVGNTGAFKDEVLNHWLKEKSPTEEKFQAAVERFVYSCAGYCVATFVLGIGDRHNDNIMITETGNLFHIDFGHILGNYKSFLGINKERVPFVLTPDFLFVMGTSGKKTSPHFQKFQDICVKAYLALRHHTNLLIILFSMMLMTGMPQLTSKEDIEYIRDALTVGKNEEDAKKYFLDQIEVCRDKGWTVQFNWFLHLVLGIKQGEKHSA
SMILES,IC50 [1],IC50 [2],IC50 [3]
"[2H]C([2H])([2H])c1ccc(S(=O)(=O)NC23CC(CO)(C2)C3)cc1-c1cnc(N)c(-c2ccncn2)n1 [Example 81, 3-(5-Amino-6-(pyrimidin-4-yl)pyrazin-2-yl)-N-(3-(hydroxymethyl)bicyclo[1.1.1]pentan-1-yl)-4-(methyl-d3)benzenesulfonamide trifluoroacetate salt]",≤ 500 nM,≤ 100 nM,≤ 100 nM
"Cc1ccc(S(=O)(=O)NC23CCC(C#N)(C2)C3)cc1-c1cnc(N)c(-c2cn(C)nc2C)c1 [Example 82, 3-(6-Amino-5-(1,3-dimethyl-1H-pyrazol-4-yl)pyridin-3-yl)-N-(4-cyanobicyclo[2.1.1]hexan-1-yl)-4-methylbenzenesulfonamide]",≤ 1000 nM,≤ 100 nM,≤ 500 nM
"Cc1ncc(-c2cc(-c3cc(S(=O)(=O)NC45COC(CO)(C4)C5)ccc3C)cnc2N)s1 [Example 86, 3-(6-amino-5-(2-methylthiazol-5-yl)pyridin-3-yl)-N-(1-(hydroxymethyl)-2-oxabicyclo[2.1.1]hexan-4-yl)-4-methylbenzenesulfonamide]",≤ 500 nM,≤ 100 nM,≤ 500 nM
"[2H]C([2H])([2H])c1ccc(S(=O)(=O)NC23CCN(CC2)C3)cc1-c1cnc(N)c(-c2ncn(C([2H])([2H])[2H])n2)n1 [Example 92, 3-(5-amino-6-(1-(methyl-d3)-1H-1,2,4-triazol-3-yl)pyrazin-2-yl)-N-(1-azabicyclo[2.2.1]heptan-4-yl)-4-(methyl-d3)benzenesulfonamide]",≤ 500 nM,≤ 100 nM,≤ 100 nM
"Cc1ccc(S(=O)(=O)NC23CCN(CC2)C3)cc1-c1cnc(N)c(-n2cccn2)n1 [Example 93, 3-(5-amino-6-(1H-pyrazol-1-yl)pyrazin-2-yl)-N-(1-azabicyclo[2.2.1]heptan-4-yl)-4-methylbenzenesulfonamide]",≤ 100 nM,≤ 100 nM,≤ 100 nM
"[2H]C([2H])([2H])c1ccc(S(=O)(=O)NC23CCN(CC2)C3)cc1-c1cnc(N)c(-c2cnco2)n1 [Example 94, 3-(5-amino-6-(oxazol-5-yl)pyrazin-2-yl)-N-(1-azabicyclo[2.2.1]heptan-4-yl)-4-(methyl-d3)benzenesulfonamide]",≤ 100 nM,≤ 100 nM,≤ 500 nM
"[2H]C([2H])([2H])c1ccc(S(=O)(=O)NC23CCN(CC2)C3)cc1-c1cnc(N)c(-c2ccncn2)n1 [Example 95, 3-(5-amino-6-(pyrimidin-4-yl)pyrazin-2-yl)-N-(1-azabicyclo[2.2.1]heptan-4-yl)-4-(methyl-d3)benzenesulfonamide]",≤ 100 nM,≤ 100 nM,≤ 100 nM

# The remaining lines, values ahead:
IC50 [1],IC50 [2],IC50 [3],SMILES
≤ 100 nM,≤ 100 nM,≤ 100 nM,"Cc1ncc(-c2cc(-c3cc(S(=O)(=O)NC45CCC(C#N)(C4)C5)ccc3C)cnc2N)s1 [Example 85, 3-(6-amino-5-(2-methylthiazol-5-yl)pyridin-3-yl)-N-(4-cyanobicyclo[2.1.1]hexan-1-yl)-4-methylbenzenesulfonamide]"
≤ 100 nM,≤ 100 nM,≤ 100 nM,"Cc1ncc(-c2cc(-c3cc(S(=O)(=O)NC45CC(CO)(C4)C5)ccc3C)cnc2N)s1 [Example 87, 3-(6-amino-5-(2-methylthiazol-5-yl)pyridin-3-yl)-N-(3-(hydroxymethyl)bicyclo[1.1.1]pen-tan-1-yl)-4-methylbenzenesulfonamide]"
≤ 100 nM,≤ 100 nM,≤ 500 nM,"Cc1ccc(S(=O)(=O)NC23COC(CO)(C2)C3)cc1-c1cnc(N)c(-c2cnc(C3CC3)s2)c1 [Example 89, 3-(6-amino-5-(2-cyclopropylthiazol-5-yl)pyridin-3-yl)-N-(1-(hydroxymethyl)-2-oxabicyclo[2.1.1]hexan-4-yl)-4-methylbenzenesulfonamide]"
≤ 100 nM,≤ 100 nM,≤ 100 nM,"[2H]C([2H])([2H])c1ccc(S(=O)(=O)NC23CCN(CC2)C3)cc1-c1cnc(N)c(-n2cncn2)n1 [Example 90, 3-(5-amino-6-(1H-1,2,4-triazol-1-yl)pyrazin-2-yl)-N-(1-azabicyclo[2.2.1]heptan-4-yl)-4-(methyl-d3)benzenesulfonamide]"
≤ 100 nM,≤ 100 nM,≤ 100 nM,"[2H]C([2H])([2H])c1ccc(S(=O)(=O)NC23CCN(CC2)C3)cc1-c1cnc(N)c(-c2cnc(C)s2)n1 [Example 91, 3-(5-amino-6-(2-methylthiazol-5-yl)pyrazin-2-yl)-N-(1-azabicyclo[2.2.1]heptan-4-yl)-4-(methyl-d3)benzenesulfonamide]"
